Results taken from patent US7012085B2, “1,3 disubstituted pyrrolidines as α-2-adrenoceptor antagonists” (Novartis AG, priority 2000, dated 2006).

Legend:
[1] = system: amphetamine induced locomotion; experiment: amphetamine induced locomotion in rats; type: in vivo
Experimental: The compound or the solvent are administered at t=−30 min.

[2] = system: loxapine-induced catalepsy; experiment: loxapine-induced catalepsy in rats; type: in vivo; conditions: 0.3-3 mg/kg s.c.
Experimental: Kalkman H. O. et al., Br. J. Pharmacol. 124:1550-1556 (1998)] at doses of about 0.3 to about […] s.c.

Structure (SMILES) | reduction of locomotion ([1]; rats, 1, 3 and 10 mg/kg s.c.) | inhibition of catalepsy [2] | reduction of locomotion ([1]; rats, 0.1, 0.3 and 1 mg/kg s.c.)
COc1ccccc1[C@H]1CCN(Cc2ccc3c(c2)OCCO3)C1 [(R)-1-(2,3,-dihydro-benzo-[1,4]dioxin-6-ylmethyl)-3-(2-methoxyphenyl)pyrrolidine] | dose-dependently reduce locomotion | long lasting, dose-dependent inhibition of catalepsy | –
COc1ccccc1[C@H]1CCN(Cc2ccc(=O)n(C(C)C)c2)C1 [(R)-1-isopropyl-5-[3-(2-methoxyphenyl)pyrrolidin-1-ylmethyl]-1H-pyridin-2-one] | – | long lasting, dose-dependent inhibition of catalepsy | dose-dependently reduce locomotion
